Laboratory results published in patent US9062124B2, “GIP-based mixed agonists for treatment of metabolic disorders and obesity” (priority 2008, dated 2015).
Where a SMILES comes first, the peptide text is derived from it. Bridges are numbered along the chain shown (N, C = ends).

What was measured:
Format in all cases: cell-based
[1] = molecular target: T1, GLP-1 receptor (Homo sapiens, UniProt P43220); test: cAMP synthesis functional assay (firefly luciferase reporter in HEK293 cells), GLP-1 receptor; settings: Table 1; for GLP-1 Receptor relative activity: relative to the native hormone of the indicated receptor; for EC50: GLP-1 Receptor EC50, nM
T1 construct: expressed in transfected cells; host or cells: HEK293
T1 sequence (P43220 24-463, species assumed): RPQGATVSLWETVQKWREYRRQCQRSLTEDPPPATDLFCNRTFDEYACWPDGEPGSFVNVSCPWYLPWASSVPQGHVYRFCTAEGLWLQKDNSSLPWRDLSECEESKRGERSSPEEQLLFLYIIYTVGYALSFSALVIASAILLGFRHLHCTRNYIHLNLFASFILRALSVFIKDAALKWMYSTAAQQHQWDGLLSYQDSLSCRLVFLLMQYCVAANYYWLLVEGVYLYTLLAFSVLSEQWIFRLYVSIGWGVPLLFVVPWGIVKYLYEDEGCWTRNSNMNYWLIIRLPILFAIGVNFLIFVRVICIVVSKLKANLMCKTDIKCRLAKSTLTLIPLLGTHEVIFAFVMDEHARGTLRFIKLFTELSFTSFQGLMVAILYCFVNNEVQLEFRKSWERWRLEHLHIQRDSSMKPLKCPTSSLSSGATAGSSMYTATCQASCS

[2] = molecular target: T2, glucagon receptor (Homo sapiens, UniProt P47871); test: cAMP synthesis functional assay (firefly luciferase reporter in HEK293 cells), glucagon receptor; settings: Table 1; relative to the native hormone of the indicated receptor
T2 construct: expressed in transfected cells; host or cells: HEK293
T2 sequence (P47871 26-477): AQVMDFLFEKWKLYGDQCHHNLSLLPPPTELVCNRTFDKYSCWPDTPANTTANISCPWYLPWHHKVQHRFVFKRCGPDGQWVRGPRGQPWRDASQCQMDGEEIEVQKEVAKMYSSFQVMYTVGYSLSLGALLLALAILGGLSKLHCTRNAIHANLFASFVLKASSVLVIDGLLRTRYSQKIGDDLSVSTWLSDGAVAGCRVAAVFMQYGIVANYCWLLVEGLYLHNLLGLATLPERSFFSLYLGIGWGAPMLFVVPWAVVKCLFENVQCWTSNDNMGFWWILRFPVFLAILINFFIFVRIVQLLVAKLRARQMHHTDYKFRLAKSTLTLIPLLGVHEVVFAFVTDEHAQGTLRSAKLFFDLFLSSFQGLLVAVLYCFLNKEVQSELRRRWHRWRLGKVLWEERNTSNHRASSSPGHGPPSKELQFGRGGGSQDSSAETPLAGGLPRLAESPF

[3] = molecular target: T3, GIP receptor (Homo sapiens, UniProt P48546); test: cAMP synthesis functional assay (firefly luciferase reporter in HEK293 cells), GIP receptor; settings: Table 1; relative to the native hormone of the indicated receptor
T3 construct: expressed in transfected cells; host or cells: HEK293
T3 sequence (P48546 22-466): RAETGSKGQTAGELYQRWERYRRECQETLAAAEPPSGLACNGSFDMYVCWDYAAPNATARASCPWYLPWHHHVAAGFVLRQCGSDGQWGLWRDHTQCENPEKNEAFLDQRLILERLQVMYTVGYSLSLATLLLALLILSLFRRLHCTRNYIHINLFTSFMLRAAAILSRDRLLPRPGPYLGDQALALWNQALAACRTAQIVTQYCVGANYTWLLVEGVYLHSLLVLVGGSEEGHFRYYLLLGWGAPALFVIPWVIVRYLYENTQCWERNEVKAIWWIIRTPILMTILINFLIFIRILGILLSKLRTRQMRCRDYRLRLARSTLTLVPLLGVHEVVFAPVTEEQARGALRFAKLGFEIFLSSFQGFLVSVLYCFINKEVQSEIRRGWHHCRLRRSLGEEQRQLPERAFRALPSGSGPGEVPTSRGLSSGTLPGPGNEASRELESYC

Compound | GLP-1 Receptor relative activity [1] [%] | Glucagon Receptor relative activity [2] [%] | GIP Receptor relative activity [3] [%] | EC50 [1] [nM]
CC[C@H](C)[C@H](NC(=O)[C@H](Cc1ccccc1)NC(=O)[C@H](CCC(=O)O)NC(=O)[C@@H]1CCCCNC(=O)CC[C@H](NC(=O)[C@H](CC(=O)O)NC(=O)[C@H](CC(C)C)NC(=O)[C@H](Cc2ccc(O)cc2)NC(=O)[C@H](CCCCN)NC(=O)[C@H](CO)NC(=O)[C@H](Cc2ccc(O)cc2)NC(=O)[C@H](CC(=O)O)NC(=O)[C@H](CO)NC(=O)[C@@H](NC(=O)[C@H](Cc2ccccc2)NC(=O)[C@@H](NC(=O)CNC(=O)[C@H](CCC(N)=O)NC(=O)[C@H](CO)NC(=O)[C@@H](N)Cc2ccc(O)cc2)[C@@H](C)O)[C@@H](C)O)C(=O)N[C@@H](CCC(N)=O)C(=O)N[C@@H](C)C(=O)N[C@@H](C)C(=O)N1)C(=O)N[C@@H](C)C(=O)N[C@@H](Cc1c[nH]c2ccccc12)C(=O)N[C@@H](CC(C)C)C(=O)N[C@@H](CC(C)C)C(=O)N[C@@H](C)C(=O)NCC(=O)NCC(=O)N1CCC[C@H]1C(=O)N[C@@H](CO)C(=O)N[C@@H](CO)C(=O)NCC(=O)N[C@@H](C)C(=O)N1CCC[C@H]1C(=O)N1CCC[C@H]1C(=O)N1CCC[C@H]1C(=O)N[C@@H](CO)C(N)=O [mt-139] (H-YSQGTFTSDYSKYLDEQAAKEFIAWLLAGGPSSGAPPPS-NH2; lactam 16-20; N-terminus assumed) | 41.46 | 561.11 | 12.22 | 
CSCC[C@H](NC(=O)[C@H](Cc1ccc(O)cc1)NC(=O)[C@H](CCCCN)NC(=O)[C@H](CO)NC(=O)[C@H](Cc1ccc(O)cc1)NC(=O)[C@H](CC(=O)O)NC(=O)[C@H](CO)NC(=O)[C@@H](NC(=O)[C@H](Cc1ccccc1)NC(=O)[C@@H](NC(=O)CNC(=O)[C@H](CCC(N)=O)NC(=O)[C@H](CO)NC(=O)[C@@H](N)Cc1ccc(O)cc1)[C@@H](C)O)[C@@H](C)O)C(=O)N[C@@H](CC(=O)O)C(=O)N[C@H]1CCC(=O)NCCCC[C@@H](C(=O)N[C@@H](CCC(=O)O)C(=O)N[C@@H](Cc2ccccc2)C(=O)N[C@H](C(=O)N[C@@H](CC(N)=O)C(=O)N[C@@H](Cc2c[nH]c3ccccc23)C(=O)N[C@@H](CC(C)C)C(=O)N[C@@H](CC(C)C)C(=O)N[C@@H](C)C(=O)NCC(=O)NCC(=O)N2CCC[C@H]2C(=O)N[C@@H](CO)C(=O)N[C@@H](CO)C(=O)NCC(=O)N[C@@H](C)C(=O)N2CCC[C@H]2C(=O)N2CCC[C@H]2C(=O)N2CCC[C@H]2C(=O)N[C@@H](CO)C(N)=O)C(C)C)NC(=O)[C@H](C)NC(=O)[C@H](C)NC(=O)[C@H](CCC(N)=O)NC1=O [mt-141] (H-YSQGTFTSDYSKYMDEQAAKEFVNWLLAGGPSSGAPPPS-NH2; lactam 16-20; N-terminus assumed) | 36.78 | 269.33 | 10.04 | 0.16
CC(C)C[C@H](NC(=O)[C@H](CC(C)C)NC(=O)[C@H](Cc1c[nH]c2ccccc12)NC(=O)[C@H](CC(N)=O)NC(=O)[C@@H](NC(=O)[C@H](Cc1ccccc1)NC(=O)[C@H](CCC(=O)O)NC(=O)[C@@H]1CCCCNC(=O)CC[C@H](NC(=O)[C@H](CC(=O)O)NC(=O)[C@H](CC(C)C)NC(=O)[C@H](Cc2ccc(O)cc2)NC(=O)[C@H](CCCCN)NC(=O)[C@H](CO)NC(=O)[C@H](Cc2ccc(O)cc2)NC(=O)[C@H](CC(=O)O)NC(=O)[C@H](CO)NC(=O)[C@@H](NC(=O)[C@H](Cc2ccccc2)NC(=O)[C@@H](NC(=O)CNC(=O)[C@H](CCC(N)=O)NC(=O)[C@H](CO)NC(=O)[C@@H](N)Cc2ccc(O)cc2)[C@@H](C)O)[C@@H](C)O)C(=O)N[C@@H](CCCNC(=N)N)C(=O)N[C@@H](CCCNC(=N)N)C(=O)N[C@@H](C)C(=O)N1)C(C)C)C(=O)N[C@@H](C)C(=O)NCC(=O)NCC(=O)N1CCC[C@H]1C(=O)N[C@@H](CO)C(=O)N[C@@H](CO)C(=O)NCC(=O)N[C@@H](C)C(=O)N1CCC[C@H]1C(=O)N1CCC[C@H]1C(=O)N1CCC[C@H]1C(=O)N[C@@H](CO)C(N)=O [mt-143] (H-YSQGTFTSDYSKYLDERRAKEFVNWLLAGGPSSGAPPPS-NH2; lactam 16-20; N-terminus assumed) | 4.53 | 496.51 | 1.82 | 
CC[C@H](C)[C@H](NC(=O)[C@H](CO)NC(=O)[C@H](Cc1ccc(O)cc1)NC(=O)[C@H](CC(=O)O)NC(=O)[C@H](CO)NC(=O)[C@@H](NC(=O)[C@H](Cc1ccccc1)NC(=O)[C@@H](NC(=O)CNC(=O)[C@H](CCC(N)=O)NC(=O)[C@H](C)NC(=O)[C@@H](N)Cc1ccc(O)cc1)[C@@H](C)O)[C@@H](C)O)C(=O)N[C@@H](Cc1ccc(O)cc1)C(=O)N[C@@H](CCSC)C(=O)N[C@@H](CC(=O)O)C(=O)N[C@H]1CCC(=O)NCCCC[C@@H](C(=O)N[C@@H](CCC(=O)O)C(=O)N[C@@H](Cc2ccccc2)C(=O)N[C@H](C(=O)N[C@@H](CC(N)=O)C(=O)N[C@@H](Cc2c[nH]c3ccccc23)C(=O)N[C@@H](CC(C)C)C(=O)N[C@@H](CC(C)C)C(=O)N[C@@H](C)C(=O)NCC(=O)NCC(=O)N2CCC[C@H]2C(=O)N[C@@H](CO)C(=O)N[C@@H](CO)C(=O)NCC(=O)N[C@@H](C)C(=O)N2CCC[C@H]2C(=O)N2CCC[C@H]2C(=O)N2CCC[C@H]2C(=O)N[C@@H](CO)C(N)=O)C(C)C)NC(=O)[C@H](C)NC(=O)[C@H](C)NC(=O)[C@H](CCC(N)=O)NC1=O [mt-144] (H-YAQGTFTSDYSIYMDEQAAKEFVNWLLAGGPSSGAPPPS-NH2; lactam 16-20; N-terminus assumed) | 141.67 | 16.77 | 18.54 | 0.036
CC[C@H](C)[C@H](NC(=O)[C@H](Cc1ccccc1)NC(=O)[C@@H](NC(=O)CNC(=O)[C@H](CCC(N)=O)NC(=O)[C@H](C)NC(=O)[C@@H](N)Cc1ccc(O)cc1)[C@@H](C)O)C(=O)N[C@@H](CO)C(=O)N[C@@H](CC(=O)O)C(=O)N[C@@H](Cc1ccc(O)cc1)C(=O)N[C@@H](CO)C(=O)N[C@@H](CCCCN)C(=O)N[C@@H](Cc1ccc(O)cc1)C(=O)N[C@@H](CC(C)C)C(=O)N[C@@H](CC(=O)O)C(=O)N[C@H]1CCC(=O)NCCCC[C@@H](C(=O)N[C@@H](CCC(=O)O)C(=O)N[C@@H](Cc2ccccc2)C(=O)N[C@H](C(=O)N[C@@H](CC(N)=O)C(=O)N[C@@H](Cc2c[nH]c3ccccc23)C(=O)N[C@@H](CC(C)C)C(=O)N[C@@H](CC(C)C)C(=O)N[C@@H](C)C(=O)NCC(=O)NCC(=O)N2CCC[C@H]2C(=O)N[C@@H](CO)C(=O)N[C@@H](CO)C(=O)NCC(=O)N[C@@H](C)C(=O)N2CCC[C@H]2C(=O)N2CCC[C@H]2C(=O)N2CCC[C@H]2C(=O)N[C@@H](CO)C(N)=O)C(C)C)NC(=O)[C@H](C)NC(=O)[C@H](C)NC(=O)[C@H](CCC(N)=O)NC1=O [mt-145] (H-YAQGTFISDYSKYLDEQAAKEFVNWLLAGGPSSGAPPPS-NH2; lactam 16-20; N-terminus assumed) | 0.33 | 47.06 | 4.79 | 
